Experimental data taken from paper PMC2710007, “Anchoring Secreted Proteins in Endoplasmic Reticulum by Plant Oleosin: The Example of Vitamin B12 Cellular Sequestration by Transcobalamin” (PLoS ONE, 2009).

Target: T1, transcobalamin-oleosin (TC-O) chimera (Homo sapiens, UniProt P20062)
T1 construct: gene TCN2; single fusion: human TC without N-terminal signal peptide and stop codon, at the N-terminal side of full-length peanut oleosin (ER anchor; printed oleosin primer encodes MATATDR...); pAcSG2 baculovirus, Sf9 cells; membrane fraction, not purified; with Oleosin (peanut, 17 kDa)
T1 sequence (P20062 19-427): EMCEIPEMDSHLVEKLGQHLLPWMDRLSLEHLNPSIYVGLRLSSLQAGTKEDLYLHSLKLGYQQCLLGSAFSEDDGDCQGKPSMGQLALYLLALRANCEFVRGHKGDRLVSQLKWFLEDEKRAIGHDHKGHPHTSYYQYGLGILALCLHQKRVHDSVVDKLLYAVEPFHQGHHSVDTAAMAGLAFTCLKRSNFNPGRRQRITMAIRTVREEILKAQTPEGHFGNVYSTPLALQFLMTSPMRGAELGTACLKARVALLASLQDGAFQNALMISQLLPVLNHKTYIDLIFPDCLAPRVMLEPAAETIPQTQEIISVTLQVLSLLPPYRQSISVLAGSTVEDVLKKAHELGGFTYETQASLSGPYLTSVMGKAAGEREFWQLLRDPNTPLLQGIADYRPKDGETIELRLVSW
Assay: radioligand saturation binding, Scatchard plot
Type: biochemical
Conditions: membrane fraction of lysed Sf9 cells; 57Co labelled compound; TBS, 4 °C, 20 min; printed as Ka but in a concentration unit (that of a dissociation constant)

Substance: [57Co]-labeled vitamin B12
- Ka: ~ 0.02 pmol/L
